The text below walks through data of patent US10822586B2, “Agents and methods for treating and preventing seborrheic keratosis” (THE GENERAL HOSPITAL CORPORATION, priority 2012, dated 2020).

In assay [1] the test system is primary SK cells. As to the kind of experiment: Screening for inducers of cell death in primary SK cells (SRB assay). As to conditions: for SK cell death inducer activity / viability of SK cells in the screen: 500 nM; for SK cell death inducer activity / viability of SK cells in the screen / cell death in SK cells (follow-up): 24 hrs post treatment, SRB assay. Type of assay: cell-based, human. The procedure: (§1) FIG. 2A, FIG. 2B, and FIG. 2C show data relating to the screening for small molecule inducers of cell death in primary SK cells. (FIG. 2A) 20 small molecule inhibitors (500 nM) of kinases within the MAPK-Raf and PIK3/Akt pathway were used to treat primary SK cells (in 12 well plates) harboring either FGFR3 or/and PIK3CA mutations or none. Cell death was detected 24 hrs post treatment using SRB assay. (FIG. 2B) Representative images of cells after compound treatment. (FIG. 2C) Same molecules were used on normal human keratinocytes in two different concentrations.
(§2) (FIG. 4A) SK cells were treated with two different Akt inhibitors and cell death was measured 24 hrs post treatment using SRB assay. (FIG. 4B) Akt inhibitors were profiled against the human kinome and shared targets were identified. (FIG. 4C) Cell death in SK cells after PKC inhibition. (FIG. 4D) cell death was measured in SK cells 72 hrs after transfection with control RNAi or RNAi for Akt1 and/or 2.
Due to the fragility of the primary cultures, RNAi transfection in a high throughput fashion turned out to be challenging, which prompted the use of a collection of specific small molecule kinase inhibitors to determine which kinase is essential for survival of SK cells but not of normal human keratinocytes. This level of selectivity was introduced in order to specifically target dependency caused by genomic alterations (both mutations and overexpression).
As recently reported this hyperphosphorylation is due to the docking of the compound in the ATP binding site, which prevents the Akt interaction with its downstream targets^27. As shown in FIG. 5B SK cells treated with C8 indeed have a hyperphosphorylated Akt, but importantly the Akt downstream signaling was shut down (FIG. 5C).
(§3) Small molecule kinase inhibitors usually have a high degree of specificity towards kinases in general but often these inhibitory effects are shared among several kinases, although in different doses. While this is in most of the cases considered a weakness of the approach, it can also give some evidence about other possible targets involved in the process of interest. Therefore, the inventors profiled the two effective compounds for their targets (in collaboration with Dr. N. Gray, DFCI) and determined if any other kinases might be involved in the survival of SK cells. […] In addition, the inventors were able to confirm this by down-modulation of Akt family members using an RNAi approach.

Assay [2] has as its system Akt. As to the kind of experiment: Western blotting of Akt signaling in SK cells. Type of assay: cell-based, human. The procedure:
(FIG. 3A) SK and normal keratinocytes were treated with C8 for 24 hrs and SRB stained. (FIG. 3B) and (FIG. 3C). SK cells were treated with C8 for 4 hrs and subjected to Western blotting for corresponding proteins.

For assay [3], the system named is human kinome. As to the kind of experiment: Profiling of Akt inhibitors against the human kinome. Type of assay: biochemical. As to the method:
as §2, §3

The test system of assay [4] is Human SK explants. The assay is described as follows: Topical treatment of ex vivo human SK explants. Type of assay: cell-based. The procedure:
It is now widely accepted that growth, differentiation and death of keratinocytes in culture differs in significant aspects from that in intact skin. Therefore, in order to closely reproduce the in vivo situation for SK tumors, the inventors utilized an ex vivo explant system^16 for culturing freshly excised SK lesions for up to 7 days. SK explants were treated by topical application of 1 mM of C8 for 48 hrs and stained for activated Caspase 3 to detect cell death.

Assay [5] relates to pro-apoptotic Akt targets (FoxO1/3, MDM2, p53). The assay is described as follows: Western blot of pro-apoptotic Akt targets in SK cells. Type of assay: cell-based, human. As to conditions: 24 hrs post treatment, WB. As to the method:
(§4) (FIG. 6A) SK cells were treated with the Akt inhibitor either for 24 hrs to measure levels of cleaved PARP by Western blotting or (FIG. 6B) for 48 hrs to detect TUNEL staining. (FIG. 6C) 24 hrs post treatment pro-apoptotic Akt targets were analyzed by WB.
Therefore, it was investigated if any of the prominent pro-apoptotic targets of Akt were involved in this process. A decrease of phosphorylated levels of FoxO1/3 as well as of phosphorylated MDM2 was observed, which correlated with increased p53 levels upon treatment with the Akt inhibitor […].

In assay [6] the test system is normal human keratinocytes. As to the kind of experiment: Cell death in normal human keratinocytes (SRB assay). Type of assay: cell-based. Particulars: C8 dose-response, 24 hrs, SRB stained. The procedure: as §1
FIG. 3A, FIG. 3B, and FIG. 3C show data relating to small molecule-mediated inhibition of Akt signaling in primary SK cells. (FIG. 3A) SK and normal keratinocytes were treated with C8 for 24 hrs and SRB stained. (FIG. 3B) and (FIG. 3C). SK cells were treated with C8 for 4 hrs and subjected to Western blotting for corresponding proteins.
Due to the fragility of the primary cultures, RNAi transfection in a high throughput fashion turned out to be challenging, which prompted the use of a collection of specific small molecule kinase inhibitors to determine which kinase is essential for survival of SK cells but not of normal human keratinocytes. This level of selectivity was introduced in order to specifically target dependency caused by genomic alterations (both mutations and overexpression). […]

The subject of assay [7] is SK cells. The assay is described as follows: Apoptosis in SK cells (cleaved PARP Western blotting, TUNEL staining). Type of assay: cell-based, human. As to the method:
as §4
It is well-established that activation of Akt in cells is known to elicit pro-survival effects through activation/suppression of different targeted pathways.

[8] abbreviates: SK cells treated 4 hrs, Western blotting.

“Also recorded” adds a separate entry of the source. Like-named read-outs stand apart in the source and are kept apart here.

With `Clc1ccc(C2(c3ccc(-c4cn[nH]c4)cc3)CCNCC2)cc1` [C9], in assay [1], the “SK cell death inducer activity / viability of SK cells in the screen” value is “did not affect the viability” and the “cell death in SK cells (follow-up)” value is listed as “did not show any effects”.
As to `O=c1c(O)c(-c2ccc(O)cc2)oc2cc(O)cc(O)c12` [kaempferol], the “Akt signaling in SK cells” value in assay [2] is listed as “block Akt signaling”. The “cell death in SK cells” value in assay [1] (within 48 hours) was “induce cell death”.
For the molecule `CCn1c(-c2nonc2N)nc2c(C#CC(C)(C)O)ncc(OC[C@H]3CCCNC3)c21` [GSK690693], in assay [3], the “shared targets in kinase profiling” value is “only members of the Akt and PKC family were shared targets”.
Regarding `Cc1c2ccncc2c(C)c2c1[nH]c1ccccc12` [elipticine, ellipticine], the “Akt signaling in SK cells” value in assay [2] was “block Akt signaling”. For the same molecule, the “cell death in SK cells” value in assay [1] (within 48 hours) is reported as “induce cell death”.
Take `COc1ccc(C2=N[C@@H](c3ccc(Cl)cc3)[C@@H](c3ccc(Cl)cc3)N2C(=O)N2CCNC(=O)C2)c(OC(C)C)c1` [Nutlin-3]: the “cell death in SK cells” value in assay [1] was “induces cells death”.
For the molecule `Cc1n[nH]c2ccc(-c3cncc(OC[C@@H](N)Cc4c[nH]c5ccccc45)c3)cc12` [C8], in assay [4] (topical application of 1 mM for 48 hrs), the “cell death in SK explants (activated Caspase 3)” value was “significant cell death; also recorded: induction of cell death”. Moreover, the “tissue destruction in SK explants (H&E staining)” value in assay [4] (topically treated with 1 mM for 48 hrs) is given as “tissue destruction”. Further, in assay [2] (setting [8]), the Akt downstream signaling result is recorded as “shut down”; the “phosphorylation status of Akt at T308 and 5473” value was “paradoxical hyperphosphorylation”. In assay [1], the “SK cell death inducer activity / viability of SK cells in the screen” value was “very strong activity” and the “cell death in SK cells (follow-up)” value is “dose-response killing effect”. Moreover, in assay [5], the p53 levels entry is on record as “increased”, the “phosphorylated MDM2” value is reported as “decrease” and the “phosphorylated levels of FoxO1/3” value was “decrease”. The “effect on normal keratinocytes” value in assay [6] is given as “remained unaffected even at higher doses”. The “apoptosis as detected by cleaved PARP levels and TUNEL staining” value in assay [7] (24 hrs (cleaved PARP), 48 hrs (TUNEL)) is “induction of apoptosis”. Besides, the TUNEL staining entry in assay [7] (SK cells, 48 hrs) was “positive”. Besides, in assay [3], the “shared targets in kinase profiling” value is “only members of the Akt and PKC family were shared targets”.
Consider `COc1ccc(C[C@H](N)C(=O)N[C@H]2[C@@H](O)[C@H](n3cnc4c(N(C)C)ncnc43)O[C@@H]2CO)cc1` [pyromycin, puromycin], for which, in assay [1], the “cell death in SK cells” value was “inducer of cell death”.
